The results in this text go back to paper PMC11956017, “Design of Benzyl-triazolopyrimidine-Based NADPH Oxidase Inhibitors Leads to the Discovery of a Potent Dual Covalent NOX2/MAOB Inhibitor” (Journal of Medicinal Chemistry, 2025).

Test [1] concerns dehydrogenase domain of csNOX5. In words: NADPH depletion assay on csNOX5 dehydrogenase domain. The test is classed as biochemical, Cylindrospermum stagnale. The settings on record: 10 μM inhibitor; 1 μM purified protein, 250 μM NADPH. As for the experimental part:
A series of derivatives were synthesized and tested at 10 μM against the dehydrogenase domain of NOX5 from Cylindrospermum stagnale (C. stagnale, CsNOX5; Figure 2B).
The NADPH depletion assay for IC50 determinations was performed as described[10] with modifications for covalent inhibitors, which require longer incubation times. Briefly, the catalytic activity was measured by monitoring the absorbance at 340 nm with a Cary 100 UV–vis spectrophotometer (Varian). A 1 μM portion of purified protein was added in a final volume of 130 μL of 50 mM HEPES pH 7.5 and supplemented with 300 μM FAD. Inhibitors were added at varying concentrations and incubated for 1 h at 25 °C.

The target of test [2] is T1, human NOX1 (Homo sapiens, UniProt Q9Y5S8).
T1 construct: expressed in transfected cells; host or cells: HEK293 F cells, transient transfection (pEG BacMam vector); isolated membranes; Cytosolic proteins made in E. coli
T1 sequence (Q9Y5S8 1-564): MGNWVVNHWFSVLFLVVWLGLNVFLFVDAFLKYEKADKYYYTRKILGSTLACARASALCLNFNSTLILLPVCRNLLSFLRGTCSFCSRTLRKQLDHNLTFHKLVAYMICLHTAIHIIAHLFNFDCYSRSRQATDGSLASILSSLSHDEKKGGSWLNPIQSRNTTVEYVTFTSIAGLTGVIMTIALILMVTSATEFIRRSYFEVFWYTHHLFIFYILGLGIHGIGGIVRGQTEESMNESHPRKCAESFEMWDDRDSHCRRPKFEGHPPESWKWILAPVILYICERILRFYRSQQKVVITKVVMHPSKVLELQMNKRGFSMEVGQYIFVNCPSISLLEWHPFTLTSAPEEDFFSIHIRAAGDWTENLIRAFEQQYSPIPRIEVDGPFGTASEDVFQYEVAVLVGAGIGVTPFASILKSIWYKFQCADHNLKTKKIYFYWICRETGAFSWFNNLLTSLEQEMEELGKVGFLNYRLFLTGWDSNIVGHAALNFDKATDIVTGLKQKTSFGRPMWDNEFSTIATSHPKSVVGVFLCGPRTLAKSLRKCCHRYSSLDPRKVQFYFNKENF
T1 sequence (P13498 1-195 partner): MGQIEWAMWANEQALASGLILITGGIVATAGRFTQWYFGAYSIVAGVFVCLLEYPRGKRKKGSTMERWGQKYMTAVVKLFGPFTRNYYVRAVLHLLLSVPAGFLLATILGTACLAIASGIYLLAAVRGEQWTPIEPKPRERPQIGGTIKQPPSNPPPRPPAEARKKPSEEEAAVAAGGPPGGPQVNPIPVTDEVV
Kind of test: Human NOX1 isolated membranes, Amplex Red/horseradish peroxidase coupled assay. The settings on record: membrane-embedded, 40 μM NADPH; for IC50: read-out: IC50 on human NOXs, NOX1 (AMPLEX RED). The class given is biochemical. As for the experimental part:
Activity assays for IC50 determinations were performed as previously described[40],[42] with modifications for covalent inhibitors. […] The estimated final protein concentrations based on the heme’s absorbance (ε414 nm = 131,000 M^–1 cm^–1) were 10–20 nM. Compounds were incubated for 1 h at 25 °C at varying concentrations, and reactions were initiated with 40 μM NADPH. Fluorescence was measured using a ClarioStar plate reader (excitation 572 nm/emission 583 nm).

Test [3] concerns the target T2, human MAOA (Homo sapiens, UniProt P21397).
T2 construct: made in house; host or cells: Pichia pastoris
T2 sequence (P21397 1-527): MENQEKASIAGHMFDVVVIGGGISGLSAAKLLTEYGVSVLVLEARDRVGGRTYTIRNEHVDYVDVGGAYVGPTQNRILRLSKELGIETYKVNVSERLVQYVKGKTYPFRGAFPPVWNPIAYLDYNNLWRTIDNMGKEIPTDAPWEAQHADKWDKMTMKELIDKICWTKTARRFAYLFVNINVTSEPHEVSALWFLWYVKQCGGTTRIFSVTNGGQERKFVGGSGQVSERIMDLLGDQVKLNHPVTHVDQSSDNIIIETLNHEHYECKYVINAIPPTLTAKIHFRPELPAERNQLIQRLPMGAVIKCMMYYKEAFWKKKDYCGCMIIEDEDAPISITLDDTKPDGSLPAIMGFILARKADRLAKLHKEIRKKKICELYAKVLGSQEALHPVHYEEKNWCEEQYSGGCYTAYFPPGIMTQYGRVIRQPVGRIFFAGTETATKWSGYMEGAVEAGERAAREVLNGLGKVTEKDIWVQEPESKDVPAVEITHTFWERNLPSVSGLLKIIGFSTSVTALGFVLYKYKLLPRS
In words: Purified MAOA, Amplex Red/horseradish peroxidase coupled assay. The class given is biochemical. The settings on record: 70 nM MAOA, 1 mM kynuramine. As for the experimental part: (§1) IC50 values on human MAOA and human MAOB were determined using the Amplex Red/horseradish peroxidase coupled assay. […] Measurements were performed using a ClarioStar plate reader (excitation 572 nm and emission 583 nm) (BMG Labtech). IC50 values were obtained by fitting the percentage of inhibition versus log(inhibitor concentration) using GraphPad software 7.0. The covalent modification of the flavin upon the reaction with the propargylamine-containing inhibitors was monitored spectrophotometrically using a diode array UV/visible spectrophotometer (Agilent Technologies). […] The cofactor covalent modification was monitored over time following the shift of the enzyme-bound flavin (peaks at 370 and 456 nm) to 410 nm (ε410 = 23,500 M^–1 cm^–1) (Figure S10).

Test [4] addresses T3, human MAOB (Homo sapiens, UniProt P27338).
T3 construct: made in house; host or cells: Pichia pastoris
T3 sequence (P27338 1-520): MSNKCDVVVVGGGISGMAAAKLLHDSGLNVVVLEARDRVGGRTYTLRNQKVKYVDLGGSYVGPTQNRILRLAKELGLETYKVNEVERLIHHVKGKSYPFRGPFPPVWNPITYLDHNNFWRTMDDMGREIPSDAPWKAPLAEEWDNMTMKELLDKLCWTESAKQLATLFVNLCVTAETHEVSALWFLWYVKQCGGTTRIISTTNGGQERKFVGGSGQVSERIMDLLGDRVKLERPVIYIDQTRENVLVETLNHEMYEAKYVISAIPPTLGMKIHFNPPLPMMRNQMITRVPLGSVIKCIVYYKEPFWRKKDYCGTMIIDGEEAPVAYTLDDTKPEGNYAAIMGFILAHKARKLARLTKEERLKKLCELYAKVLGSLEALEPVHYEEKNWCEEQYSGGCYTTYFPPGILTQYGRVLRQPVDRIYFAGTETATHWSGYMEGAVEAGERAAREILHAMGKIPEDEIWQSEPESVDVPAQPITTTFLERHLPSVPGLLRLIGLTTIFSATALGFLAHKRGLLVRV
Kind of test: Purified MAOB, Amplex Red/horseradish peroxidase coupled assay. The test is classed as biochemical. The settings on record: for IC50 / IC50 Purified MAOB: 10 nM MAOB, 1 mM benzylamine. As for the experimental part:
as §1

Each structure is given as a SMILES string. “Also recorded” adds a separate entry of the source. Where only a bound is given, the exact number is not on record here.

Usually IC50 stands for the concentration that inhibits the measured activity by half. As for `C#CCN(C)Cc1ccc(Cn2nnc3c(Sc4nc5ccccc5o4)ncnc32)cc1` [Compound 9a, N-(4-((7-(Benzo[d]oxazol-2-ylthio)-3H-[1,2,3]triazolo[4,5-d]pyrimidin-3-yl)methyl)benzyl)-N-methylprop-2-yn-1-amine], the “% INHIBITION csNOX5 DEHYDROGENASE DOMAIN” value in test [1] is 67.3 ± 4.6%. In addition, the IC50 in test [2] is 22 ± 6.7 µM; in test [3], 59 ± 5.9 µM; in test [4] it was 0.182 ± 0.1 µM. The “MAOB inhibition relative to rasagiline (weaker)” value in test [4] is given as 10 fold.

Regarding `CCCNC(=O)c1ccc(Cn2nnc3c(Sc4nc5ccccc5o4)ncnc32)cc1` [Compound 8a, (4-((7-Benzo[d]oxazol-2-yl-thio)-3H-[1,2,3]triazole[4,5-d]pyrimidin-3-yl)methyl)-N-(propyl)benzamide], in test [1], the “% INHIBITION csNOX5 DEHYDROGENASE DOMAIN” value was 95.6 ± 0.1%. Moreover, the IC50 in test [2] came to 32.9 ± 2.9 µM. In test [3], the IC50 was greater than 100 µM and the “IC50 Purified MAOA” value is listed as “ineffective; also recorded: Not detected”. In test [4], the IC50 was greater than 100 µM and the “IC50 Purified MAOB” value is given as “ineffective; also recorded: Not detected”.

Regarding `C#CCNC(=O)c1ccc(Cn2nnc3c(Sc4nc5ccccc5o4)ncnc32)cc1` [Compound 8b, (4-((7-Benzo[d]oxazol-2-yl-thio)-3H-[1,2,3]triazole[4,5-d]pyrimidin-3-yl)methyl)-N-(prop-2-in-1-yl)benzamide], the “% INHIBITION csNOX5 DEHYDROGENASE DOMAIN” value in test [1] was 94.6 ± 1.0%. Also, in test [2], the “IC50 on human NOXs, NOX1 (AMPLEX RED)” value was “inactive” and the IC50 is greater than 100 µM. In test [3], this compound came in with an IC50 of 41.6 ± 3.7 µM. In addition, the “IC50 Purified MAOB” value in test [4] is “Inhibition^b”.
